What was measured:
[1] = molecular target: 5'-AMP-activated protein kinase catalytic subunit alpha-2 (Homo sapiens) (UniProt P54646); details: Compound concentration 1000.0 nM
[2] = molecular target: Bone morphogenetic protein receptor type-2 (Homo sapiens) (UniProt Q13873); details: Compound concentration 1000.0 nM
[3] = molecular target: Calcium/calmodulin-dependent protein kinase type 1 (Homo sapiens) (UniProt Q14012); details: Compound concentration 1000.0 nM
[4] = molecular target: Cyclin-dependent kinase 19 (Homo sapiens) (UniProt Q9BWU1); details: Compound concentration 1000.0 nM
[5] = molecular target: Casein kinase I isoform alpha (Homo sapiens) (UniProt P48729); details: Compound concentration 1000.0 nM
[6] = molecular target: Ephrin type-A receptor 4 (Homo sapiens) (UniProt P54764); details: Compound concentration 1000.0 nM
[7] = molecular target: Ephrin type-B receptor 1 (Homo sapiens) (UniProt P54762); details: Compound concentration 1000.0 nM
Ephrin type-B receptor 1 (Homo sapiens), sequence (P54762 whole entry): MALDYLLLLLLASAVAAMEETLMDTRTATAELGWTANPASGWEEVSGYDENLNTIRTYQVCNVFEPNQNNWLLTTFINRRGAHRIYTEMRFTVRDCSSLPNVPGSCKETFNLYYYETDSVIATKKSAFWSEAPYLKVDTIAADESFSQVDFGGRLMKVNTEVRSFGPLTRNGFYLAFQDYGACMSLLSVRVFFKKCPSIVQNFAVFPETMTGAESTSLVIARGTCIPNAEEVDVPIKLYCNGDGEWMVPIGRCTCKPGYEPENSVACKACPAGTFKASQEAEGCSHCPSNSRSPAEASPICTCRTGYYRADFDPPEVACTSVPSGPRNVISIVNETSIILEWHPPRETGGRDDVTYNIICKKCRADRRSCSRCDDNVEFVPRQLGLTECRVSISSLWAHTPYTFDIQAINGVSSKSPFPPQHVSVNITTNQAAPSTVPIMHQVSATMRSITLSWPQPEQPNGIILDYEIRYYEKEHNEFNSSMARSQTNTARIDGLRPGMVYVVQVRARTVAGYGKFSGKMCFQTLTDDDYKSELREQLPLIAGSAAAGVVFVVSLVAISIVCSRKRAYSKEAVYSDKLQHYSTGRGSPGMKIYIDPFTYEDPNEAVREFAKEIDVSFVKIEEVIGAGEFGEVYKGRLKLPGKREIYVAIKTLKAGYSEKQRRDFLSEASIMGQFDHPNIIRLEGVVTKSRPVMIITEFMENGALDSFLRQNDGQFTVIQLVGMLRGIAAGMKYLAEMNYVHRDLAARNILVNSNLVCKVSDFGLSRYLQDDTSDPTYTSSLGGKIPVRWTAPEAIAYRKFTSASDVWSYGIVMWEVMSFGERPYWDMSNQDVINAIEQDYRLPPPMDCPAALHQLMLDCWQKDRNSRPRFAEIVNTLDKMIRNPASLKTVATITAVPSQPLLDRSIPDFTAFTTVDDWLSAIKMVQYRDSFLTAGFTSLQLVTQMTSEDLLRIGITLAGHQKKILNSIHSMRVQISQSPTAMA

[8] = molecular target: Receptor tyrosine-protein kinase erbB-3 (Homo sapiens) (UniProt P21860); details: Compound concentration 1000.0 nM
[9] = molecular target: Mitogen-activated protein kinase 4 (Homo sapiens) (UniProt P31152); details: Compound concentration 1000.0 nM
[10] = molecular target: Receptor-type tyrosine-protein kinase FLT3 (Homo sapiens) (UniProt P36888); details: Compound concentration 1000.0 nM
[11] = test system: Receptor-type tyrosine-protein kinase FLT3 (Homo sapiens), P36888 [K663Q]; details: Compound concentration 1000.0 nM
[12] = molecular target: Vascular endothelial growth factor receptor 3 (Homo sapiens) (UniProt P35916); details: Compound concentration 1000.0 nM
Vascular endothelial growth factor receptor 3 (Homo sapiens), sequence (P35916 whole entry): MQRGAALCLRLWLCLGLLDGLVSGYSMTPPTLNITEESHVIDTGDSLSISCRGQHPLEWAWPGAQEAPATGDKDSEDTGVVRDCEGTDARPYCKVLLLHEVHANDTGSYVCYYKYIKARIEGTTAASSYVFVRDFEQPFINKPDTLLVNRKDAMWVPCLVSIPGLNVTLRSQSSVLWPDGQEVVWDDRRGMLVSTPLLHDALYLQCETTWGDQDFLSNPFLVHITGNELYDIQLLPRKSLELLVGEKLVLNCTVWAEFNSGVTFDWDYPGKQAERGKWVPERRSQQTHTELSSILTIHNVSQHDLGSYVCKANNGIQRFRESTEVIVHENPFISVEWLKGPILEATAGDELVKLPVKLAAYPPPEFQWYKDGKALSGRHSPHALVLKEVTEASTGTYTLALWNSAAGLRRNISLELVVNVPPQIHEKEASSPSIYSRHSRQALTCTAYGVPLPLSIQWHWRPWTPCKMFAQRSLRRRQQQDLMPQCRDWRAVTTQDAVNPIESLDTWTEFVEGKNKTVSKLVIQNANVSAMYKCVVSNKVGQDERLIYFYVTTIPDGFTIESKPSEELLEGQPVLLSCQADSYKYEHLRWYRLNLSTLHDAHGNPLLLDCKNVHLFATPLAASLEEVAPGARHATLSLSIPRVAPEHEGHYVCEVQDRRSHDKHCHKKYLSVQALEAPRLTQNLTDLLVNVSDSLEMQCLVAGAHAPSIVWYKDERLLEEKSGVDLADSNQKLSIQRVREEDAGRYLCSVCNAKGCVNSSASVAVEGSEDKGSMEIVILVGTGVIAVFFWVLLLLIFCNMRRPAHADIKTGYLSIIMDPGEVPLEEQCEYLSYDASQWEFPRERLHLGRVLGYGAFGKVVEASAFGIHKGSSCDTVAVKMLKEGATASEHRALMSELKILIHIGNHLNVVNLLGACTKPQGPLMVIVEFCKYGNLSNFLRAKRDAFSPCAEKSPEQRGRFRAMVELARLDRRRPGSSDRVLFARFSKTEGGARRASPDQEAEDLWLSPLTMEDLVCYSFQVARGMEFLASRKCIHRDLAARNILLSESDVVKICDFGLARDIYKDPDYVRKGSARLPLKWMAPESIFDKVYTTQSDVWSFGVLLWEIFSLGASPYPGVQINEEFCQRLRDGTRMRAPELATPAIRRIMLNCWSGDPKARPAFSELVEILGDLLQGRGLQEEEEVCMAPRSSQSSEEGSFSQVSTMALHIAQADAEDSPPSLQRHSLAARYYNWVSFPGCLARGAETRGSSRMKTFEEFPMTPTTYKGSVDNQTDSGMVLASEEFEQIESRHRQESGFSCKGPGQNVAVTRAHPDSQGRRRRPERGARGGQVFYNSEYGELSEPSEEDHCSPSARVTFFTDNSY

[13] = molecular target: Interleukin-1 receptor-associated kinase 1 (Homo sapiens) (UniProt P51617); details: Compound concentration 1000.0 nM
[14] = molecular target: Tyrosine-protein kinase JAK1 (Homo sapiens) (UniProt P23458); details: Compound concentration 1000.0 nM
[15] = molecular target: Tyrosine-protein kinase Lck (Homo sapiens) (UniProt P06239); details: Compound concentration 1000.0 nM
[16] = molecular target: Serine/threonine-protein kinase 4 (Homo sapiens) (UniProt Q13043); details: Compound concentration 1000.0 nM
[17] = molecular target: Myosin light chain kinase family member 4 (Homo sapiens) (UniProt Q86YV6); details: Compound concentration 1000.0 nM
[18] = molecular target: Serine/threonine-protein kinase Nek11 (Homo sapiens) (UniProt Q8NG66); details: Compound concentration 1000.0 nM
Serine/threonine-protein kinase Nek11 (Homo sapiens), sequence (Q8NG66 whole entry): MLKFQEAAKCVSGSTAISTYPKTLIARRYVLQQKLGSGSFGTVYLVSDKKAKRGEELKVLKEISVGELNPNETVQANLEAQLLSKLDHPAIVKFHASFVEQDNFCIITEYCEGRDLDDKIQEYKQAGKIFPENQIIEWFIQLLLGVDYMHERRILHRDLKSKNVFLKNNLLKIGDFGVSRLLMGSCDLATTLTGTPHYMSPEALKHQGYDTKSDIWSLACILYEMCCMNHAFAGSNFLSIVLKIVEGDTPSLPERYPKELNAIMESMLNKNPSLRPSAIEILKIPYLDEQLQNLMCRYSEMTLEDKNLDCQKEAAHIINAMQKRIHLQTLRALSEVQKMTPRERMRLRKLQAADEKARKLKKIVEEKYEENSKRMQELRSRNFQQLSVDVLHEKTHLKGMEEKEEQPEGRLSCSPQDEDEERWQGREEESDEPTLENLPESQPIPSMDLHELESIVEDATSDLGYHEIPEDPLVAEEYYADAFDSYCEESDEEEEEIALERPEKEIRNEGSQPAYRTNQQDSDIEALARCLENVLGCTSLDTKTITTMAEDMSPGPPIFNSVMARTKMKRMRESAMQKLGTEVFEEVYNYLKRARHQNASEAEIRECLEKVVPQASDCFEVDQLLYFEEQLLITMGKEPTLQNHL

[19] = molecular target: Serine/threonine-protein kinase Nek2 (Homo sapiens) (UniProt P51955); details: Compound concentration 1000.0 nM
[20] = molecular target: Serine/threonine-protein kinase NIM1 (Homo sapiens) (UniProt Q8IY84); details: Compound concentration 1000.0 nM
[21] = molecular target: Mitogen-activated protein kinase 12 (Homo sapiens) (UniProt P53778); details: Compound concentration 1000.0 nM
[22] = molecular target: Phosphorylase b kinase regulatory subunit alpha, liver isoform (Homo sapiens) (UniProt P46019); details: Compound concentration 1000.0 nM
[23] = molecular target: Serine/threonine-protein kinase PLK2 (Homo sapiens) (UniProt Q9NYY3); details: Compound concentration 1000.0 nM
[24] = molecular target: Serine/threonine-protein kinase D2 (Homo sapiens) (UniProt Q9BZL6); details: Compound concentration 1000.0 nM
[25] = molecular target: Uncharacterized serine/threonine-protein kinase SBK3 (Homo sapiens) (UniProt P0C264); details: Compound concentration 1000.0 nM
[26] = molecular target: Serine/threonine-protein kinase Sgk3 (Homo sapiens) (UniProt Q96BR1); details: Compound concentration 1000.0 nM
[27] = molecular target: Serine/threonine-protein kinase TAO1 (Homo sapiens) (UniProt Q7L7X3); details: Compound concentration 1000.0 nM
[28] = molecular target: Serine/threonine-protein kinase TAO2 (Homo sapiens) (UniProt Q9UL54); details: Compound concentration 1000.0 nM
[29] = molecular target: TGF-beta receptor type-1 (Homo sapiens) (UniProt P36897); details: Compound concentration 1000.0 nM
[30] = molecular target: TGF-beta receptor type-2 (Homo sapiens) (UniProt P37173); details: Compound concentration 1000.0 nM
TGF-beta receptor type-2 (Homo sapiens), sequence (P37173 whole entry): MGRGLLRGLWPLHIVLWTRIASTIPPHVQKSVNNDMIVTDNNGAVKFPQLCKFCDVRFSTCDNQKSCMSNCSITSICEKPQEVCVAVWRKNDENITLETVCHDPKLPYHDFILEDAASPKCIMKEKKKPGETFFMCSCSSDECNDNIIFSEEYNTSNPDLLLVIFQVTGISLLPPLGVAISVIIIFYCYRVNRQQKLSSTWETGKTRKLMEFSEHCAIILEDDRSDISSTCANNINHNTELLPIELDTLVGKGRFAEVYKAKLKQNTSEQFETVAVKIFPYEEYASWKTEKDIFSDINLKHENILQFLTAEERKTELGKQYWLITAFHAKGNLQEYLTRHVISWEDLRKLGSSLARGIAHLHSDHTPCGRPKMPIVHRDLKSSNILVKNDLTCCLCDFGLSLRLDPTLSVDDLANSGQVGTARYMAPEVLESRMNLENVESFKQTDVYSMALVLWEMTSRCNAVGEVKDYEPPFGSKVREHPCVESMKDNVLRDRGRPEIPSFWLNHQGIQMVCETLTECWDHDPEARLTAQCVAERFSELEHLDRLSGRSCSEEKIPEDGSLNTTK

[31] = molecular target: High affinity nerve growth factor receptor (Homo sapiens) (UniProt P04629); details: Compound concentration 1000.0 nM
[32] = molecular target: Testis-specific serine/threonine-protein kinase 3 (Homo sapiens) (UniProt Q96PN8); details: Compound concentration 1000.0 nM
[33] = molecular target: Phosphatidylinositol 3-kinase catalytic subunit type 3 (Homo sapiens) (UniProt Q8NEB9); details: Compound concentration 1000.0 nM
[34] = molecular target: Serine/threonine-protein kinase WNK1 (Homo sapiens) (UniProt Q9H4A3); details: Compound concentration 1000.0 nM
[35] = molecular target: Calcium/calmodulin-dependent protein kinase type II subunit beta (Homo sapiens) (UniProt Q13554); assay: CaMKIIbeta (h) Millipore kinase activity assay; details: Compound concentration 1.0 uM
[36] = molecular target: Fibroblast growth factor receptor 3 (Homo sapiens) (UniProt P22607); assay: FGFR3 (h) Millipore kinase activity assay; details: Compound concentration 1.0 uM
Fibroblast growth factor receptor 3 (Homo sapiens), sequence (P22607 23-806 limits assumed): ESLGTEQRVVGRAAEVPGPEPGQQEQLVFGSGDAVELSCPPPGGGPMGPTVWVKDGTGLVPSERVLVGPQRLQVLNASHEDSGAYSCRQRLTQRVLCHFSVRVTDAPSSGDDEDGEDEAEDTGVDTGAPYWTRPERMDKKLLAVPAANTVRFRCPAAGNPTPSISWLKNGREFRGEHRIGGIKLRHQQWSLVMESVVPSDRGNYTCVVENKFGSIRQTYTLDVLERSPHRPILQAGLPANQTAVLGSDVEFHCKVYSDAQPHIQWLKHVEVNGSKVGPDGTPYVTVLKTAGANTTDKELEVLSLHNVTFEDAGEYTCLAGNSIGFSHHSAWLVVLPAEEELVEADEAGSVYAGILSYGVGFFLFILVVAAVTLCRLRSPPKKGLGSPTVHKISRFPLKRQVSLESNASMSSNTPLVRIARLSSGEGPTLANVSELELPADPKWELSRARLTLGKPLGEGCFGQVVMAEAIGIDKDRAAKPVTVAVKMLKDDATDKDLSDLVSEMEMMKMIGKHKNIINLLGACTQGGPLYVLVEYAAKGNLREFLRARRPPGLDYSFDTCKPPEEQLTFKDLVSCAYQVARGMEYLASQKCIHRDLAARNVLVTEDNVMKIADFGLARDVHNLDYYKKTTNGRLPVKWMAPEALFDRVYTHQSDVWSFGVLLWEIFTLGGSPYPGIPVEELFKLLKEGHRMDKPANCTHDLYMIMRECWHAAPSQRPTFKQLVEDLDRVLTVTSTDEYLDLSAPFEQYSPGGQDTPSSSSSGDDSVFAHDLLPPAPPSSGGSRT

[37] = molecular target: Vascular endothelial growth factor receptor 3 (Homo sapiens) (UniProt P35916); assay: Flt4 (h) Millipore kinase activity assay; details: Compound concentration 1.0 uM
[38] = molecular target: Platelet-derived growth factor receptor alpha (Homo sapiens) (UniProt P16234); assay: PDGFRalpha (h) Millipore kinase activity assay; details: Compound concentration 1.0 uM
[39] = molecular target: MAP kinase-activated protein kinase 5 (Homo sapiens) (UniProt Q8IW41); assay: PRAK (h) Millipore kinase activity assay; details: Compound concentration 1.0 uM
[40] = molecular target: B1 bradykinin receptor (Homo sapiens) (UniProt P46663); assay: Inhibition of Bradykinin B1 at 10 µM in the Eurofins-Panlabs radioligand binding assay (Eurofins_assay_212510); details: Compound concentration 10.0 uM
B1 bradykinin receptor (Homo sapiens), sequence (P46663 whole entry): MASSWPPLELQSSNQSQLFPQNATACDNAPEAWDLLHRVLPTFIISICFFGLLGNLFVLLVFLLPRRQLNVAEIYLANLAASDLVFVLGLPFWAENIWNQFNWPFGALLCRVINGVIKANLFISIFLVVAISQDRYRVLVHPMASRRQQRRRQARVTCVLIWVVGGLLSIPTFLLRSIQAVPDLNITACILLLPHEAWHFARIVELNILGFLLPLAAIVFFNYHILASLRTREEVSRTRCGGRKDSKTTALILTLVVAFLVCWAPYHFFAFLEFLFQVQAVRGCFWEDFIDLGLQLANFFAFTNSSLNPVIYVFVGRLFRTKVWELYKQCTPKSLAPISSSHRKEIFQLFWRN

[41] = molecular target: Estrogen receptor (Homo sapiens) (UniProt P03372); details: Compound concentration 10.0 uM
[42] = molecular target: Glutamate NMDA receptor (Rattus norvegicus) (UniProt P35439+Q00959+Q00960+Q00961+Q62645+Q8VHN2+Q9R1M7); details: Compound concentration 10.0 uM
[43] = molecular target: Sodium-dependent noradrenaline transporter (Homo sapiens) (UniProt P23975); details: Compound concentration 10.0 uM
[44] = molecular target: Phosphorylase b kinase gamma catalytic chain, liver/testis isoform (Homo sapiens) (UniProt P15735); assay: PhKgamma2 (h) Millipore kinase activity assay; details: Compound concentration 1.0 uM

Calcium/calmodulin-dependent protein kinase type 1 (Homo sapiens), sequence (Q14012 whole entry, looked up): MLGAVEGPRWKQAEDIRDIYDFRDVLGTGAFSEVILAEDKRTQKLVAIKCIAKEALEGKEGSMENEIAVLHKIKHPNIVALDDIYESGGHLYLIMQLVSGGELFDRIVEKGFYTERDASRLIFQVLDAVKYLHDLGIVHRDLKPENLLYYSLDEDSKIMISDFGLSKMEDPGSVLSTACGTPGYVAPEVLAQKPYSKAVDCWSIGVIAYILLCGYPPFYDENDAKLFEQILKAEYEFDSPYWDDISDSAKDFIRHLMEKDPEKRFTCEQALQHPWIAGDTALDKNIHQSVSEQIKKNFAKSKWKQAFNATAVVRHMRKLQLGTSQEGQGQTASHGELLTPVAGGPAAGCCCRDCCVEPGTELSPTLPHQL

CC1=C(C#N)[C@@H](c2ccc3[nH]nc(C)c3c2)C(C#N)=C(c2ccc(Cl)cc2)N1 [BAY-827]
inactive: residual activity [1] 95.3% | residual activity [2] 100% | residual activity [3] 100% | residual activity [4] 66.8% | residual activity [5] 64.7% | residual activity [6] 96.4% | residual activity [7] 100% | residual activity [8] 63.9% | residual activity [9] 89.6% | residual activity [10] 100% | residual activity [11] 100% | residual activity [12] 89.5% | residual activity [13] 100% | residual activity [14] 100% | residual activity [15] 100% | residual activity [16] 100% | residual activity [17] 100% | residual activity [18] 62.4% | residual activity [19] 100% | residual activity [20] 100% | residual activity [21] 58.6% | residual activity [22] 100% | residual activity [23] 100% | residual activity [24] 100% | residual activity [25] 100% | residual activity [26] 84.5% | residual activity [27] 100% | residual activity [28] 100% | residual activity [29] 62.4% | residual activity [30] 74.6% | residual activity [31] 84.6% | residual activity [32] 100% | residual activity [33] 100% | residual activity [34] 100%

CC1=C(C#N)C(c2ccc3[nH]nc(C)c3c2)C(C#N)=C(C)N1 [BAY-474]
inactive: inhibition [35] 4% | inhibition [36] 10% | inhibition [37] 26% | inhibition [38] -2% | inhibition [39] 6% | inhibition [40] 6% | inhibition [41] 2% | inhibition [42] 9% | inhibition [43] 6% | inhibition [44] -10%
